In general, EC50 refers to the concentration giving half of the maximal effect. What is called IC50 is the concentration at which inhibition is half-maximal. A word on the CC50: it is the concentration giving 50% cytotoxicity. A word on the AC50: it is the concentration at which the activity in the assay is half-maximal.

The text below walks through data of ChEMBL document CHEMBL1201862, “PubChem BioAssay data set” (2004).

Experiment [1] has as its target T1, Aryl hydrocarbon receptor (Homo sapiens, UniProt P35869).
T1 sequence (P35869 whole entry): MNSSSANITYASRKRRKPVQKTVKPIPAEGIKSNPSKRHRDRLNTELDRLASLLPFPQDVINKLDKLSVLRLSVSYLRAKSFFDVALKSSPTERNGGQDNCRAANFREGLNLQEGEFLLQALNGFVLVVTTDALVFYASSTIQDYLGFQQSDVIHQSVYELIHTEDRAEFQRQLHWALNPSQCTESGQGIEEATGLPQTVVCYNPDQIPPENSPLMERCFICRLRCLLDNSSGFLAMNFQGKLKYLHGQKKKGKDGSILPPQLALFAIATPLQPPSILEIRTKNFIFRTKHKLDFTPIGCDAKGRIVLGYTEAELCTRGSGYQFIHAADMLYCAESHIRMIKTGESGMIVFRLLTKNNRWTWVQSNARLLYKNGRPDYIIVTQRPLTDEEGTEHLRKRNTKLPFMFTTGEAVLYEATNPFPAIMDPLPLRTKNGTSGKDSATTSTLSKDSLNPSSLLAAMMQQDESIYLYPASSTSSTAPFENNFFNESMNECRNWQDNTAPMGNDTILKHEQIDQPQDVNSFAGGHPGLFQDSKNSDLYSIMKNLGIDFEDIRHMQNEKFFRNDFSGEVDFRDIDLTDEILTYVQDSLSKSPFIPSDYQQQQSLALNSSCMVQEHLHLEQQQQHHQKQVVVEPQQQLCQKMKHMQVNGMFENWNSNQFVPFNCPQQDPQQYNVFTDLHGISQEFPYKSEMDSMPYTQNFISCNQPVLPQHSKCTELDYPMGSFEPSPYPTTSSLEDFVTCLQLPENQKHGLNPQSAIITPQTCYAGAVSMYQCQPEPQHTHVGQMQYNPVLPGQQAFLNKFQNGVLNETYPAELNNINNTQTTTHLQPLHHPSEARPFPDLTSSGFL
The experiment is described as follows: Luminescence-based cell-based high throughput dose response assay for activators of the Aryl Hydrocarbon Receptor (AHR). [Related pubchem assays: 2796 (Primary screen (AHR activators in singlicate)), 2845 (Confirmation screen (AHR activators in triplicate)), 434939 (Counterscreen (PXR activators in triplicate)), 2804 (Summary (AHR activators))]. It counts as ADME. (In general: The purpose of a counterscreen is to sort out artefacts and off-target activity.)

A further experiment concerns the target Galanin receptor type 2 (Homo sapiens, UniProt O43603). The experiment can be described thus: Dose Response cell-based high-throughput screening assay to identify antagonists of galanin receptor 2 (GALR2). [Related pubchem assays: 828, 866 ]. It counts as functional.
In experiment [2] the test system is HEK293. The experiment can be described thus: cells. Conditions: Homo sapiens.
For experiment [3], the system named is HEK293. The experiment can be described thus: cells. Conditions: Homo sapiens. The source holds these as a separate data set.
Experiment [4] concerns Vero. The experiment is described as follows: West Nile virus antiviral activity, cell-based, CPE readout (AID 1621). It counts as functional. Conditions: Chlorocebus sabaeus.
In experiment [5] the test system is Vero. The experiment is described as follows: host cell cytotoxicity of antiviral hits, dose response, cytotoxicity control for West Nile virus antiviral project, secondary assay (AID 1650). It counts as functional. Conditions: Chlorocebus sabaeus.
The nature of experiment [6]: cells.
The nature of experiment [7]: cytotoxicity toward NIH3T3 fibroblasts, dose response, counter-screen, cell-based, ATP luminescence, mouse fibroblasts (AID 2010).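 Also: cells exposed to compound for about 90 hours before reading.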 It counts as functional.
The nature of experiment [8]: inhibitors of intracellular T. cruzi replication, confirmation, NIH3T3 host cells, beta-gal luminescence (AID 2044).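 Also: intracellular parasites grown in NIH/3T3 mouse fibroblasts as host cells; luminescent beta-galactosidase reporter signal from transgenic T. cruzi replicating inside host cells; inhibitors lower the luminescence signal.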 It counts as functional, cell-based.
Experiment [9] can be described thus: Shn3 3'UTR reporter inhibitors, dose response, cell-based, Clone20 osteoblasts, firefly luciferase, cherry-picked (AID 624132).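 Also: firefly luciferase luminescence from reporter carrying the Shn3 3'UTR in osteoblasts.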 It counts as functional.
The subject of experiment [10] is HEK293. The experiment is described as follows: inhibitors of LMP1-driven NF-kB reporter, dose response, cell-based, HEK293, luciferase, cherry-pick (AID 588343). It counts as functional. To be noted: Homo sapiens.
Experiment [11] deals with HEK293. The experiment can be described thus: cells. It counts as functional, cell-based. To be noted: Homo sapiens.
Experiment [12] has as its system HEK293. The experiment can be described thus: NOD1 signaling inhibitors, primary screen, cell-based, luminescence, uHTS (AID 1578). It counts as functional. Conditions: Homo sapiens.
Another experiment concerns Streptococcus. The experiment is described as follows: Group A Streptococcus viability loss, dose response, counter-screen for streptokinase expression inhibitor project, luminescence, BacTiterGlo (AID 1915).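 Also: potency for reduction of bacterial viability or growth.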 It counts as functional, organism-based.
Experiment [13] deals with Nucleotide-binding oligomerization domain-containing protein 2 (Homo sapiens, UniProt Q9HC29). The experiment is described as follows: NOD2 signaling inhibitors, cell-based, luminescence, uHTS, HEK293 (AID 1566). It counts as functional.
Sequence of Nucleotide-binding oligomerization domain-containing protein 2 (Q9HC29 whole entry, the tested form may be a part): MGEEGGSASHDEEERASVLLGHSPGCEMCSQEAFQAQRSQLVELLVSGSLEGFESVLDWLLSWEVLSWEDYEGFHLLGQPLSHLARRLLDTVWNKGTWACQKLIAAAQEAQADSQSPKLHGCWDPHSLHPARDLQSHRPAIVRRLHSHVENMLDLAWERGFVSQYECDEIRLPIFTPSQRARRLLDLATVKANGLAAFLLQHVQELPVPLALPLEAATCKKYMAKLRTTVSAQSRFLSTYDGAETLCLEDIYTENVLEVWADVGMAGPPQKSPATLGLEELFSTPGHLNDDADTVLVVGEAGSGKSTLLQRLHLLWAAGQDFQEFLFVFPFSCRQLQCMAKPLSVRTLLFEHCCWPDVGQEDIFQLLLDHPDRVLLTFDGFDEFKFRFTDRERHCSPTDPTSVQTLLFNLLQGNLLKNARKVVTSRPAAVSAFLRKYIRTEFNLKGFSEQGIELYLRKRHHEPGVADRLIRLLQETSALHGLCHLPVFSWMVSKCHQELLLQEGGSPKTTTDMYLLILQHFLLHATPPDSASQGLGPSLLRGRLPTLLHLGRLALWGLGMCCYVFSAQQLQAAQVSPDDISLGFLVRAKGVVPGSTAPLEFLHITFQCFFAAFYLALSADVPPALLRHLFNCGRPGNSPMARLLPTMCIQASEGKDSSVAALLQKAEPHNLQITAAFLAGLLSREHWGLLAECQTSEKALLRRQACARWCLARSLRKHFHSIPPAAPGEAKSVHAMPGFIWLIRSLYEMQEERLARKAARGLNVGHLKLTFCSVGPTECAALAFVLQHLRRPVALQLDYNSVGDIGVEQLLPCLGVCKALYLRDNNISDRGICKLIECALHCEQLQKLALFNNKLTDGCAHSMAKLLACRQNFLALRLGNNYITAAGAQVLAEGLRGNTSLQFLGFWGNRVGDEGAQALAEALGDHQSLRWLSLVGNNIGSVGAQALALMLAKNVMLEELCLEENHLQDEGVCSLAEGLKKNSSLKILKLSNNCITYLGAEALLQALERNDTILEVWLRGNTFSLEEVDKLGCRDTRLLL
The test system of experiment [14] is HEK293. The experiment is described as follows: cells. It counts as functional, cell-based. To be noted: Homo sapiens. This is another data set of the same source.
The nature of experiment [15]: Luminescence-based dose response cell-based high throughput screening assay for cytotoxic compounds using the IEC-6 intestinal epithelial cell line. [Related pubchem assays: 1858 (Summary AID.), 1825 (Counterscreen.), 1907 (Confirmation screen.)]. It counts as functional.
In experiment [16] the test system is BJ. The experiment can be described thus: cytotoxicity toward BJ-TERT-LT-ST fibroblasts, dose response, cell-based, RAS-independent, luminescence (AID 1935).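 Also: BJ fibroblasts immortalized with TERT plus LT and ST oncogenes.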 It counts as functional. To be noted: Homo sapiens.
In experiment [17] the test system is BJ. The experiment can be described thus: cells. Conditions: Homo sapiens. It counts as functional, cell-based.
A short description of experiment [18]: HepG2 cell cytotoxicity, dose response, cytotoxicity control for Shn3 inhibitor project, CellTiter-Glo, cherry-picked (AID 624134). It counts as functional, cell-based. A general note: In ATP-based viability assays light output follows the ATP content of the culture.
The subject of experiment [19] is Streptococcus sp. 'group A'. The experiment can be described thus: growth inhibition of control SK(-) GAS strain, dose response, counter-screen for streptokinase expression inhibitor project, luminescence, kanamycin, BacTiterGlo, confirmation (AID 1900). It counts as functional, organism-based.
Experiment [20] can be described thus: cells. It counts as functional, cell-based.
Experiment [21] can be described thus: cells. It counts as functional, cell-based. This is another data set of the same source.
The nature of experiment [22]: control 3'UTR Renilla luciferase suppression, dose response, counter-screen for Shn3 inhibitor project, cell-based, Clone20-Shn3RL, cherry-picked (AID 624133). It counts as functional.
In experiment [23] the test system is HEK293. The experiment is described as follows: cells. It counts as functional, cell-based. Conditions: Homo sapiens. This is another data set of the same source.
Experiment [24] in a line: cytotoxicity toward DRD oncogenic fibroblasts, dose response, cell-based, non-viral oncogenic, luminescence (AID 1934). It counts as functional. To be noted: Homo sapiens.
Experiment [25] has as its system HEK293. The experiment is described as follows: NOD2 signaling inhibitors in MDP-stimulated cells, cell-based, uHTS, luminescence (AID 2001). It counts as functional. Conditions: Homo sapiens.
In experiment [26] the test system is BJ. The experiment is described as follows: cytotoxicity toward BJ-TERT fibroblasts, dose response, cell-based, RAS-independent, luminescence (AID 1933). It counts as functional. Conditions: Homo sapiens.

Activity calls are given as the source filed them.

Sequence of Galanin receptor type 2 (O43603 whole entry): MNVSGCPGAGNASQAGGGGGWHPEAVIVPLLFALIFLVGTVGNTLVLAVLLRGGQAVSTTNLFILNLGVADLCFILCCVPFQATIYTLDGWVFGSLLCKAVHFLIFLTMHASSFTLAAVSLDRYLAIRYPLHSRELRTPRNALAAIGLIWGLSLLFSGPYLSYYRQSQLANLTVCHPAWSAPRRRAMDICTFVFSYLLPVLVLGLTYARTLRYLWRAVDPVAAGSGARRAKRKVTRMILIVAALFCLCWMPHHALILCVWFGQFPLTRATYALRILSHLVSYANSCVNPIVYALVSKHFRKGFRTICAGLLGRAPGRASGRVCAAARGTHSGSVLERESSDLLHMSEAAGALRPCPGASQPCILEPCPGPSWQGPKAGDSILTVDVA

`COc1ccccc1NC(=O)c1ccc2c(c1)nnn2C`: the EC50 in [1] is 0.195 µM (active).

`CN(C(S)=NC1CCCCC1)C1(c2ccccc2Cl)CCCCC1=O` (stereo not given): on Galanin receptor type 2, the IC50 is on record as > 42 µM (not active). In addition, the EC50 with HEK293 [2] and in the experiment on HEK293 [3] was > 59.6 µM (inactive) in each case.

On to `CN(C)CCCNC(=O)c1cc2sc3ccccc3c2s1`, for which the IC50 in the experiment on Vero [4] was 21.4 µM (active). Besides, the CC50 in the experiment with Vero [5] was 14.6 µM (active).

Take `O=C1NC(=O)N(C2CCCCCC2)C(=O)/C1=C/NC1CCN(Cc2ccccc2)CC1`: the concentration for a half-maximal effect (EC50) in “cells [6]” was 0.361 µM (active); in experiment [7], 23.5 µM (active); in experiment [8], < 0.1 µM (active).

Consider `CC(=O)NC(c1ccc(Cl)cc1Cl)c1ccc2cccnc2c1O` (stereo not given), for which the AC50 is 0.465 µM (active) in experiment [9], 4.24 µM (active) in the experiment on HEK293 [10], 0.764 µM (active) in [18] and 0.778 µM (active) in experiment [22]. Moreover, the EC50 in experiment [7] was 0.192 µM (active); in the experiment with HEK293 [12], > 20 µM (inactive); in the experiment on Streptococcus, 6.93 µM (active); in experiment [13] it was > 20 µM (inactive); with BJ [16], 2.82 µM (inconclusive); in the experiment with BJ [17] it was 6.93 µM (active). Further, the half-maximal effective concentration (EC50) in experiment [19] is 4.98 µM (active); in the experiment “cells [20]” it was > 350 µM (not active); in experiment [8] it was 0.163 µM (active); in “cells [21]”, 4.6 µM (active); in experiment [24], 0.95 µM (active); in the experiment on BJ [26], 0.837 µM (active). Besides, the IC50 with HEK293 [11] is > 20 µM (inactive); in the experiment with HEK293 [14], > 20 µM (inactive); in [15], 0.386 µM (active); in the experiment with HEK293 [23], 12 µM (active); in the experiment on HEK293 [25] it was > 20 µM (inactive).
